Experimental data reported in PMC13266999, “Designing Antibiotics with Inherent Resistance to Efflux as a Strategy to Revive Discovery against Multidrug-Resistant Pathogens” (Journal of Medicinal Chemistry, 2026).
In brackets after ≈: the same amount, converted by molar mass. Several values for one entry are separate records, joined by “and”; a condition that tells them apart may be missing. Equal values may be shown once. Read-outs that look alike come from different tables or passages of the source.

How the values were obtained:
S. agalactiae = experiment: MIC (microbroth dilution); assay type: cell-based, Streptococcus agalactiae; settings: for MIC: Streptococcus agalactiae
Experimental: All bacteria were maintained on tryptic soy agar (TSA), except Streptococcus spp., which were maintained on Columbia agar plates containing 5% horse blood. All bacterial assays were carried out in tryptic soy broth (TSB), except for Streptococcus spp. which were grown in cation-adjusted Mueller Hinton broth containing 2.5% lysed horse blood. Bacteria were grown to stationary phase in liquid culture overnight, with shaking at 200 rpm, before being back diluted to the relevant starting concentration for each assay below. MICs were measured by the microbroth dilution method. […] Absorbance at OD600 was read on a CLARIOstar spectrophotometer (BMG Labtech) and the MIC was defined as the minimum concentration of compound where no visible growth was detected. The compounds were prepared as a DMSO stock and equivalent concentrations of DMSO had no effect on bacterial growth. MICs were also performed in the presence of the outer membrane permeator, polymyxin b nonapeptide (PMBN) following the same MIC method but with the following variation. The 2-fold dilution series of compound was prepared as above, then 50 μL of PMBN at a final concentration of 30 μg/mL was added to relevant wells, while 50 μL/well of blank media was added to the remaining wells. Bacteria were then added at 50 μL/well for a starting concentration as above. Thirty μg/mL of PMBN had no effect on bacterial growth. The MICs were read and defined as above. All animal procedures were performed by the contract research organization Pharmacology Discovery Services Taiwan in accordance with the Guide for the Care and Use of Laboratory Animals. The procedures were approved by the Institutional Ethics Committee of Pharmacology Discovery Services Taiwan, Ltd. (approval no. AB127662), in compliance with animal welfare legislation in Taiwan.

WT E. coli DNA gyrase = target: T1, WT E. coli DNA gyrase (Escherichia coli, UniProt P0AES4+P0AES6); experiment: DNA gyrase inhibition assay; assay type: biochemical
T1 construct: purchased Inspiralis Ltd. (Norwich, UK)
Experimental: Gyrase inhibition was determined through biochemical assay kits from Inspiralis Ltd. (Norwich, UK), according to manufacturer’s instructions, and as described previously. Briefly, 1U of enzyme was incubated with 0.5 μg of relaxed […] DNA in the presence of compound in 1% DMSO for 30 min at 37 °C. A control reaction contained no compound but still contained 1% DMSO. The reactions were stopped through Stop Buffer addition and the DNA separated through addition of chloroform/iso-amyl alcohol (24;1). Samples were run on a 1% agarose gel at 75 V for 2 h, which was then stained with 1 μg/mL ethidium bromide and visualized using a NuGenius gel imager (Syngene). The intensity of the supercoiled DNA band was quantified using Syngene software, and the inhibition of the supercoiling of the DNA by the compounds was calculated.

[1] = tested on: S. aureus SA-1199 WT and SA-1199B; experiment: Accumulation assay; assay type: cell-based; settings: SA-1199B compared to SA-1199
Experimental: Minor adjustments were made to the protocol previously described by Geddes and Hergenrother. After centrifugation in oil to remove excess compound, the pellets were dissolved in 200 μL of ultrapure sterile water and subjected to five freeze–thaw cycles. Each cycle consisted of 1 min in a dry ice and ethanol bath, followed by vortexing and 3 min in a heat block at 65 °C. Miles Misra viable counts were used to determine the number of colony-forming units (CFUs) for each replicate. These counts were performed for the 0.55 OD inoculum, postcompound incubation, solvent-only control, and lysates.
A 20 μL sample was injected into an Onyx monolithic C18 column and run using a gradient method. The mobile phase began with 10% acetonitrile and 90% water, with the acetonitrile content increased to 90% over 7 min, maintained for 2 min, and then returned to 10%. The area under the curve was automatically calculated using Agilent ChemStation software to determine the level of accumulation within the bacterial cells. Finally, the data were analyzed using GraphPad Prism 10.4.1. Unpaired t test was conducted to evaluate the statistical significance of the level of efflux in the efflux mutant S. aureus 1199B strain compared to the wild-type S. aureus 1199 strain.

[2] = Kinetic aqueous solubility; assay type: physicochemical; settings: phosphate-buffered saline with 2% DMSO, pH 7.4, aqueous buffer, kinetic from dmso stock
Experimental: Kinetic aqueous solubility was determined using a standard LC-UV/MS-based assay. Test compounds were prepared from 10 mM DMSO stock solutions and diluted to a nominal concentration of 200 μM in phosphate-buffered saline (PBS, pH 7.4) containing 2% DMSO. Parallel dilutions in DMSO were used as reference standards. Samples were equilibrated at room temperature for 2 h with shaking, then filtered, and the filtrates were analyzed by LC-UV with mass spectrometric confirmation of the analyte peak. Solubility was determined by comparing the UV peak area of the PBS filtrate with those of the DMSO reference standards. The effective range of the assay was 10–200 μM.

WI38 = experiment: Toxicity in nontumor eukaryotic cell line; assay type: cell-based; settings: 100 μM, the highest concentration tested
AR (h) = experiment: SafetyScreen44; parameters: species or system human; settings: agonist radioligand, specific binding, 1.0E-05 M
Experimental: (§1) Off-target pharmacology was evaluated using the Eurofins SafetyScreen44 in vitro panel. […] Binding assays were performed using radioligand displacement, and enzyme or uptake assays measured inhibition of control activity using validated detection methods (scintillation counting, fluorimetry or photometry). Responses were expressed as percent inhibition of control binding or activity. Based on Eurofins interpretation guidelines, effects ≥50% were considered significant, effects between 25% and 50% weak to moderate, and effects <25% were not considered biologically relevant.

SafetyScreen44 targets = experiment: SafetyScreen44 panel, remaining targets; assay type: binding, human; settings: 10 μM
Experimental: as §1

CYP2C19 = CYP2C19 (Homo sapiens, UniProt P33261); experiment: CYP inhibition; settings: HLM, omeprazole substrate; for CYP2C19 inhibition: 10 μM
Experimental: (§2) Cytochrome P450 inhibition was assessed in vitro using human recombinant enzymes in microsomal preparations. […] Enzyme activity was quantified by monitoring formation of substrate-specific metabolites, and percent inhibition was calculated relative to vehicle control.

CYP2C8 = CYP2C8 (Homo sapiens, UniProt P10632); experiment: CYP inhibition; settings: HLM, amodiaquine substrate
Experimental: as §2

CYP2C9 = CYP2C9 (Homo sapiens, UniProt P11712); experiment: CYP inhibition; settings: HLM, diclofenac substrate
Experimental: as §2

CYP2D6 = CYP2D6 (Homo sapiens, UniProt P10635); experiment: CYP inhibition; settings: HLM, dextromethorphan substrate, 10 μM
Experimental: as §2

[3] = Murine thigh infection model; settings: oral 50 mg/kg at 2, 8, and 14 h postinfection, at 26 h

Sequence of CYP2D6 (P10635 whole entry): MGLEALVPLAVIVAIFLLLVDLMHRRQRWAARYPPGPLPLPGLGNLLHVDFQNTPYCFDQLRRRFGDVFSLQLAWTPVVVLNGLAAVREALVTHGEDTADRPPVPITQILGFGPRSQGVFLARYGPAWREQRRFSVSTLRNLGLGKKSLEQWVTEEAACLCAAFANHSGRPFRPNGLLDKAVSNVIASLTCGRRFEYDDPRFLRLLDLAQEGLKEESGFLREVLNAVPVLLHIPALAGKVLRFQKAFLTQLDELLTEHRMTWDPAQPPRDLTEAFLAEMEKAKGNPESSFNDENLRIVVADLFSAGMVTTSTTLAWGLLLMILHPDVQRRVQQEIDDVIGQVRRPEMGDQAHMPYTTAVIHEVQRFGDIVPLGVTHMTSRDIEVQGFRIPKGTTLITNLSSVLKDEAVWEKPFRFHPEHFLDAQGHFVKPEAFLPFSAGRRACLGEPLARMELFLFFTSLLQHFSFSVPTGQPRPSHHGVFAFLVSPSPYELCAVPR
Sequence of CYP2C19 (P33261 whole entry): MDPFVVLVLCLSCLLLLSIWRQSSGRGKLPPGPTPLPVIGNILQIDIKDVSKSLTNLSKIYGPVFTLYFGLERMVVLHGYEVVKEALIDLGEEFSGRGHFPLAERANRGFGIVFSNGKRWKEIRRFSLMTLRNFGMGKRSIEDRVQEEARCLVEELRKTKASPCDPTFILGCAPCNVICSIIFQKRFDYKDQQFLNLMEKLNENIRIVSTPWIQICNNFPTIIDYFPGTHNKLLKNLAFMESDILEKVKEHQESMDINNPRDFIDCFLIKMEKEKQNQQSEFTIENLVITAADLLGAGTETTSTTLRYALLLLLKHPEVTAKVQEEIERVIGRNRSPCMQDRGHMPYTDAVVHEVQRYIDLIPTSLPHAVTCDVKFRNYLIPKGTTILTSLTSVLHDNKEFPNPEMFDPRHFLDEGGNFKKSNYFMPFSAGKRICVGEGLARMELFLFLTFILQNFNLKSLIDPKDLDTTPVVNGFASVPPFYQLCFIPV
Sequence of CYP2C9 (P11712 whole entry): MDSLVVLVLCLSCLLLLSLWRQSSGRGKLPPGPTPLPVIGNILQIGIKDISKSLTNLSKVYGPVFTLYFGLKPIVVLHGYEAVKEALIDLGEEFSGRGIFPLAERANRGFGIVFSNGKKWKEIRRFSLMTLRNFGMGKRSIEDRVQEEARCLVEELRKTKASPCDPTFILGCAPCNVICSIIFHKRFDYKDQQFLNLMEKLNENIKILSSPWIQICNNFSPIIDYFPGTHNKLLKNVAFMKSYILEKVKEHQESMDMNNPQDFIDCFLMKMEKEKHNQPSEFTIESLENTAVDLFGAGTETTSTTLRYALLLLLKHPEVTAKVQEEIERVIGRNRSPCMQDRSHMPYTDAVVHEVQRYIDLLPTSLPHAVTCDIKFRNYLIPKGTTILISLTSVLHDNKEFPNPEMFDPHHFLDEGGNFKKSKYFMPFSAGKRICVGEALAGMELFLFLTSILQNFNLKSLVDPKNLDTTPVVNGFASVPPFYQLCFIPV
Sequence of CYP2C8 (P10632 whole entry): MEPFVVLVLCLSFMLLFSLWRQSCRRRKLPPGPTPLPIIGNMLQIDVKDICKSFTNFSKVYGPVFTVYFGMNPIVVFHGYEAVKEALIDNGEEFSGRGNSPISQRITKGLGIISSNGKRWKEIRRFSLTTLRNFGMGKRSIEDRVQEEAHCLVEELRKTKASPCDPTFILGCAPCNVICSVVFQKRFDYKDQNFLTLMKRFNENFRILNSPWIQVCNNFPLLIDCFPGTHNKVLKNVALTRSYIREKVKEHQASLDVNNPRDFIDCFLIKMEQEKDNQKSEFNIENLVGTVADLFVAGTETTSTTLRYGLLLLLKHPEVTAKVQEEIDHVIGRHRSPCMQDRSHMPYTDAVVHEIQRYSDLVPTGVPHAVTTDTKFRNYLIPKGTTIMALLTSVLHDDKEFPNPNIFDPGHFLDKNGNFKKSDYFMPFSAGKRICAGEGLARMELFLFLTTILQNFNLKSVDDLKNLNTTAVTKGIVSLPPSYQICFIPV
T1 sequence (P0AES4 whole entry, one chain of several): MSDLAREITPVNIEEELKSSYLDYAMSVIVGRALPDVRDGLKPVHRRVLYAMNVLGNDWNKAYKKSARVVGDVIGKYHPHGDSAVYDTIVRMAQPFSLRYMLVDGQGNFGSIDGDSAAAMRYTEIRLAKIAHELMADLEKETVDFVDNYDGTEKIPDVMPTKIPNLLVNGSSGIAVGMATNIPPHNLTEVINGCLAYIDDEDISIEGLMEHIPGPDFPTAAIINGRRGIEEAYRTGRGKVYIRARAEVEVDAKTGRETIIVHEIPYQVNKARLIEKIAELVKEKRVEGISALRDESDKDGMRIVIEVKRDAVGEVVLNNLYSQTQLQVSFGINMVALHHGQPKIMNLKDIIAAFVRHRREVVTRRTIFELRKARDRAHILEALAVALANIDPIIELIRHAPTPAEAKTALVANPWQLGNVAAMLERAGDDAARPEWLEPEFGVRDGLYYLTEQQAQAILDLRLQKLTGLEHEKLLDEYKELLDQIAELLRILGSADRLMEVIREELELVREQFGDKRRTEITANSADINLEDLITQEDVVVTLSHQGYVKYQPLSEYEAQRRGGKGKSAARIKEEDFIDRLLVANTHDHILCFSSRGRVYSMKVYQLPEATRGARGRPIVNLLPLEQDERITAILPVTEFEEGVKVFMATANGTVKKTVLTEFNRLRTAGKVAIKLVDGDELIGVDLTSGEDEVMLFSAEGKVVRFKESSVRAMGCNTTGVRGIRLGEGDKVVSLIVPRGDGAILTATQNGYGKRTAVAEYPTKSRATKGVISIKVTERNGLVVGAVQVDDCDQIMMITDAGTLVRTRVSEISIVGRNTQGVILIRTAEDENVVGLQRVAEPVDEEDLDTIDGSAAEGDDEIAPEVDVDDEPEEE

| SMILES | MIC (S. agalactiae; 8017, read-out: MIC) | MIC (S. agalactiae; 8183) | MIC (S. agalactiae; 10069, read-out: MIC) | MIC (S. agalactiae; 84115) | level of accumulation [1] | solubility at 2 h [2] | toxicity in WI38 (WI38) | % Inhibition (AR (h)) | inhibition, all other / remaining targets (SafetyScreen44 targets) | CYP2C19 inhibition (CYP2C19) | CYP2D6 inhibition (CYP2D6) | bacterial counts in thigh [3] | further results |
| --- | --- | --- | --- | --- | --- | --- | --- | --- | --- | --- | --- | --- | --- |
| C[C@H]1COc2c(N3CC[C@@H](Nc4ncccn4)C3)c(F)cc3c(=O)c(C(=O)O)cn1c23 [Compound 46, (S)-9-Fluoro-3-methyl-7-oxo-10-((R)-3-(pyrimidin-2-ylamino)pyrrolidin-1-yl)-2,3-dihydro-7H-[1,4]oxazino[2,3,4-ij]quinoline-6-carboxylic acid] | 0.5 µg/mL (≈ 1.18 µM) | 0.125 µg/mL (≈ 0.294 µM) | ≤ 0.03 µg/mL | 0.125 to 0.5 µg/mL (≈ 0.294 to 1.18 µM) | no significant change in accumulation | 183 µM (≈ 77.9 µg/mL) | nontoxic | 4.241% | < 25% | 0.6% | 0.0% | 3.19 log10 CFU/g | MIC (S. agalactiae; 6175): 0.125 µg/mL (≈ 0.294 µM); MIC (S. agalactiae; 8181): 0.125 µg/mL (≈ 0.294 µM); MIC (S. agalactiae; 10182): 0.125 µg/mL (≈ 0.294 µM); MIC (S. agalactiae; 11080, read-out: MIC): 0.25 µg/mL (≈ 0.588 µM); MIC (S. agalactiae; 83190): 0.125 µg/mL (≈ 0.294 µM); MIC (S. agalactiae; 83740): 0.125 µg/mL (≈ 0.294 µM); MIC range (S. agalactiae; n = 10): 0.06 to 0.5 µg/mL; IC50 (WT E. coli DNA gyrase): 682 nM; CYP2C8 inhibition (CYP2C8; 10 μM): 3.1%; CYP2C9 inhibition (CYP2C9; 10 μM): 12.8%; reduction relative to vehicle ([3]; 50 mg/kg): 5.17 log10 CFU/g and > 4 log10 CFU/g |
| Cc1cc(C)nc(N[C@@H]2CCN(c3c(F)cc4c(=O)c(C(=O)O)cn5c4c3OC[C@@H]5C)C2)n1 [Compound 50, (S)-10-((R)-3-((4,6-Dimethylpyrimidin-2-yl)amino)pyrrolidin-1-yl)-9-fluoro-3-methyl-7-oxo-2,3-dihydro-7H-[1,4]oxazino[2,3,4-ij]quinoline-6-carboxylic acid] | 0.25 µg/mL (≈ 0.551 µM) | 0.125 µg/mL (≈ 0.276 µM) | ≤ 0.03 µg/mL | 0.125 µg/mL (≈ 0.276 µM) |  | 156 µM (≈ 70.6 µg/mL) | nontoxic | 3.169% | < 25% | < 10% | 3.804% and < 10% |  | MIC (S. agalactiae; 6175, read-out: MIC): 0.06 µg/mL (≈ 0.132 µM); MIC (S. agalactiae; 8181, read-out: MIC): 0.06 µg/mL (≈ 0.132 µM); MIC (S. agalactiae; 10182, read-out: MIC): 0.06 µg/mL (≈ 0.132 µM); MIC (S. agalactiae; 11080): 0.125 µg/mL (≈ 0.276 µM); MIC (S. agalactiae; 83190, read-out: MIC): 0.06 µg/mL (≈ 0.132 µM); MIC (S. agalactiae; 83740, read-out: MIC): 0.06 µg/mL (≈ 0.132 µM); MIC (S. agalactiae; ATCC12386, ATCC 12386): 0.25 µg/mL (≈ 0.551 µM); MIC (S. agalactiae; n = 10, read-out: modal MIC): 0.06 µg/mL (≈ 0.132 µM); inhibition at 10 µM (CYP2C19; human, human liver microsomes, probe omeprazole, CYP2C19 inhibition): 9.87%; inhibition at 10 µM (CYP2C8; human, human liver microsomes, probe amodiaquine, CYP2C8 inhibition): 13.4%; inhibition at 10 µM (CYP2C9; human, human liver microsomes, probe diclofenac, CYP2C9 inhibition): 16.8% |
| C[C@H]1COc2c(N3CCN(C)CC3)c(F)cc3c(=O)c(C(=O)O)cn1c23 [Levofloxacin, (S)-9-Fluoro-3-methyl-10-(4-methylpiperazin-1-yl)-7-oxo-2,3-dihydro-7H-[1,4]oxazino[2,3,4-ij]quinoline-6-carboxylic acid, reference compound] |  |  |  |  | lower in the NorA-overexpressing SA-1199B strain |  |  |  |  |  |  | 3.28 log10 CFU/g | IC50 (WT E. coli DNA gyrase; wild-type E. coli DNA gyrase, read-out: IC50 (converted)): 526 nM |
